# Assay results published in ChEMBL document CHEMBL4622859, “Discovery of stereospecific cytotoxicity of (8R,8'R)-trans-arctigenin against insect cells and structure-activity relationship on aromatic ring” (Bioorg Med Chem Lett, 2020).
# Active and inactive are the calls of the source. No cut-off for these calls is given here.
# Tests used:
# [1] = Cytotoxicity against Spodoptera frugiperda Sf9 cells assessed as reduction in cell viability; type: cell-based
# [2] = Cytotoxicity against Aedes albopictus NIAS-AeAl-2 cells assessed as reduction in cell viability; type: functional, cell-based
# [3] = system: HL-60; assay: Cytotoxicity against human HL60 cells assessed as reduction in cell viability; type: functional, cell-based
# [4] = Effect on 28s ribosomal RNA expression in Spodoptera frugiperda Sf9 cells; type: functional
# [5] = system: Sf9; assay: Induction of DNA degradation in Spodoptera frugiperda Sf9 cells by DNA ladder assay; type: functional, cell-based
smiles,measurement,setting,value
COc1ccc(C[C@H]2COC(=O)[C@@H]2Cc2ccc(O)c(O)c2)cc1OC,IC50,[1],10 µM
COc1ccc(C[C@H]2COC(=O)[C@@H]2Cc2cc(F)c(F)c(F)c2)cc1OC,IC50,[1],44 µM
O=C1OC[C@H](Cc2ccc(F)cc2)[C@H]1Cc1ccc(I)cc1,IC50,[1],22 µM
COc1ccc(C[C@H]2COC(=S)[C@@H]2Cc2cc(F)c(F)c(F)c2)cc1OC,IC50,[2],15 µM
same,IC50,[1],22 µM
COc1ccc(C[C@H]2COC(=O)[C@@H]2Cc2ccccc2)cc1OC,IC50,[1],19 µM
COc1ccc(C[C@H]2COC(=O)[C@@H]2Cc2ccc(O)c(C)c2)cc1OC,IC50,[1],11 µM
COc1ccc(C[C@H]2C(=O)OC[C@@H]2Cc2ccc(OC)c(OC)c2)cc1,IC50,[2],4.3 µM
same,IC50,[1],11 µM
O=C1OC[C@H](Cc2ccc(O)cc2)[C@H]1Cc1ccc(I)cc1,IC50,[1],21 µM
COc1ccc(C[C@H]2COC(=O)[C@@H]2Cc2ccccc2F)cc1OC,IC50,[1],43 µM
COc1cc(C[C@@H]2C(=O)OC[C@@H]2Cc2ccc(OC)c(OC)c2)ccc1O,IC50,[2],6.3 µM
same,IC50,[3],8.5 µM
same,IC50,[1],13 µM
O=C1OC[C@H](Cc2ccc(C(F)(F)F)cc2)[C@H]1Cc1ccc(I)cc1,IC50,[1],15 µM
CCc1ccc(C[C@H]2C(=O)OC[C@@H]2Cc2ccc(OC)c(OC)c2)cc1,IC50,[1],17 µM
COc1cc(C[C@@H]2C(=O)OC[C@H]2Cc2ccc(OC)c(OC)c2)ccc1O,Activity,[4],Active
same,IC50,[2],28 µM
same,IC50,[3],23 µM
same,IC50,[1],80 µM
COc1ccc(C[C@H]2COC(=O)[C@@H]2Cc2ccc(C(F)(F)F)cc2)cc1OC,IC50,[2],10 µM
same,IC50,[1],20 µM
COc1ccc(C[C@H]2COC(=O)[C@@H]2Cc2ccc(I)cc2)cc1OC,IC50,[2],2.9 µM
same,IC50,[1],6.3 µM
COc1ccc(C[C@H]2COC(=O)[C@@H]2Cc2ccc(F)c(F)c2)cc1OC,IC50,[2],13 µM
same,IC50,[1],64 µM
O=C1OC[C@H](Cc2cccc(F)c2)[C@H]1Cc1ccc(I)cc1,IC50,[1],22 µM
COc1ccc(C[C@H]2COC(=O)[C@@H]2Cc2cccc(I)c2)cc1OC,IC50,[1],5.4 µM
COc1ccc(C[C@@H]2C(=O)OC[C@H]2Cc2ccc(OC)c(OC)c2)cc1,IC50,[1],47 µM
COc1ccc(C[C@H]2COC(=O)[C@@H]2Cc2ccccc2Cl)cc1OC,IC50,[1],24 µM
COc1ccc(C[C@H]2COC(=S)[C@@H]2Cc2ccc(I)cc2)cc1OC,IC50,[2],2.4 µM
same,IC50,[1],4.7 µM
O=C1OC[C@H](Cc2ccc3c(c2)OCO3)[C@H]1Cc1ccc(I)cc1,IC50,[1],12 µM
COc1ccc(C[C@H]2COC(=O)[C@@H]2Cc2ccc(C)c(C)c2)cc1OC,IC50,[1],9.3 µM
COc1ccc(C[C@@H]2COC(=O)[C@H]2Cc2ccc(Cl)cc2)cc1OC,IC50,[1],40 µM
O=C1OC[C@H](Cc2ccccc2Cl)[C@H]1Cc1ccc(I)cc1,IC50,[1],21 µM
COc1cc(C[C@H]2C(=O)OC[C@H]2Cc2ccc(OC)c(OC)c2)ccc1O,IC50,[2],57 µM
same,IC50,[3],13 µM
same,IC50,[1],> 100 µM
COc1cc(C[C@H]2C(=O)OC[C@@H]2Cc2ccc(OC)c(OC)c2)ccc1O [ARCTIGENIN],Activity,[4],Active
same,IC50,[2],0.73 µM
same,Activity,[5],inactive
same,IC50,[3],13 µM
same,IC50,[1],6.7 µM
COc1ccc(C[C@H]2COC(=O)[C@@H]2Cc2ccc3c(c2)OCO3)cc1OC [(-)-KUSUNOKININ],IC50,[2],2.7 µM
same,IC50,[1],8.2 µM
O=C1OC[C@H](Cc2ccc(Cl)cc2)[C@H]1Cc1ccc(I)cc1,IC50,[1],18 µM
COc1ccc(C[C@H]2COC(=O)[C@@H]2Cc2ccc(O)cc2)cc1OC,IC50,[2],1 µM
same,IC50,[1],9.9 µM
COc1ccc(C[C@H]2COC(=O)[C@@H]2Cc2cc(OC)c(O)c(OC)c2)cc1OC,IC50,[1],9.1 µM
COc1ccc(C[C@H]2COC(=O)[C@@H]2Cc2cccc(F)c2)cc1OC,IC50,[1],23 µM
O=C1OC[C@H](Cc2ccccc2C(F)(F)F)[C@H]1Cc1ccc(I)cc1,IC50,[1],24 µM
COc1ccc(C[C@H]2COC(=O)[C@@H]2Cc2ccccc2C)cc1OC,IC50,[1],28 µM
COc1ccc(C[C@H]2COC(=S)[C@@H]2Cc2ccccc2C)cc1OC,IC50,[1],19 µM
COc1ccccc1C[C@H]1C(=O)OC[C@@H]1Cc1ccc(OC)c(OC)c1,IC50,[1],24 µM
COc1ccc(C[C@H]2COC(=O)[C@@H]2Cc2cccc(C(F)(F)F)c2)cc1OC,IC50,[1],19 µM
